Active and inactive are the calls of the source. The calls are words filed in the database; no cut-off is given here.
Columns and labels:
[1] = Cmax in BALB/c mouse at 10 mg/kg, sc by LC-MS/MS analysis; type: ADME, organism-based; conditions: in vivo
[2] = Tmax in BALB/c mouse at 10 mg/kg, sc by LC-MS/MS analysis; type: ADME, organism-based; conditions: in vivo
[3] = Half life in BALB/c mouse at 10 mg/kg, sc by LC-MS/MS analysis; type: ADME, organism-based; conditions: in vivo
[4] = Selectivity index, ratio of IC50 for human ASPC1 cells assessed as inhibition of cell viability incubated for 6 hrs followed by compound washout measured after 114 hrs by Cell Titer Glo assay to IC50 for human ASPC1 cells assessed as inhibition of cell viability incubated for 120 hrs of continuous treatment by Cell Titer Glo assay; type: functional
ASPC1 [5] = assay: Antiproliferative activity against human ASPC1 cells assessed as inhibition of cell viability incubated for 120 hrs of continuous treatment by Cell Titer Glo assay; type: functional, cell-based; conditions: ASPC1, 120 h
[6] = biological target: T1, von Hippel-Lindau disease tumor suppressor/GTPase KRas (Homo sapiens, UniProt P01116+P40337, G12D); assay: PROTAC activity at VHL/KRAS G12D mutant in human ASPC1 cells assessed as induction of protein degradation incubated for 24 hrs by Western blot analysis; type: cell-based; conditions: read-out: DC50
T1 sequence (P01116 whole entry G12D, stated change not applied): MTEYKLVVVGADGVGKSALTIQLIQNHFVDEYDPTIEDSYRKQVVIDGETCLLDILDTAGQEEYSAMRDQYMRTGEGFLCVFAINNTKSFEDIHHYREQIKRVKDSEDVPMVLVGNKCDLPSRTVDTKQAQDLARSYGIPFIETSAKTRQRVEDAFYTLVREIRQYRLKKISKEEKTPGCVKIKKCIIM
T1 sequence (P40337 whole entry, stated change not applied): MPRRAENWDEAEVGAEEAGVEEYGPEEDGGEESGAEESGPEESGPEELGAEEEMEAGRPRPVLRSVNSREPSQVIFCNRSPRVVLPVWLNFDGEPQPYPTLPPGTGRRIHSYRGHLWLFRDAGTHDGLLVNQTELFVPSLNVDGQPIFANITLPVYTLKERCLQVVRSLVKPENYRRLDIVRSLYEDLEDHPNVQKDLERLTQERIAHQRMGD

[7] = Competitive binding affinity to His-tagged VHL/Elongin C/Elongin B/KRAS G12D mutant (unknown origin) by FP assay; set-up: species or system Homo sapiens
[8] = Drug uptake in human ASPC1 cells at 10 uM incubated for 1 hr by MS analysis; type: ADME, cell-based; conditions: aspc1, 1 h
[9] = system: von Hippel-Lindau disease tumor suppressor/GTPase KRas (Homo sapiens), P01116+P40337 [G12D]; assay: PROTAC activity at VHL/KRAS G12D mutant in human ASPC1 cells assessed as induction protein degradation at 1 uM measured for 2 to 24 hrs by Western blot analysis; type: cell-based; conditions: time 2-24 hrs
Chain of von Hippel-Lindau disease tumor suppressor/GTPase KRas (Homo sapiens), P01116+P40337 [G12D] (P01116 whole entry G12D): as the sequence (P01116 whole entry G12D, stated change not applied) above
Chain of von Hippel-Lindau disease tumor suppressor/GTPase KRas (Homo sapiens), P01116+P40337 [G12D] (P40337 whole entry partner): as the sequence (P40337 whole entry, stated change not applied) above

[10] = system: von Hippel-Lindau disease tumor suppressor/GTPase KRas (Homo sapiens), P01116+P40337 [G12D]; assay: PROTAC activity at VHL/KRAS G12D mutant in human ASPC1 cells assessed as induction protein degradation at 1 uM measured for 6 hrs by Western blot analysis relative to control; type: cell-based
Homo sapiens = organism: Homo sapiens; assay: Binding affinity to His-tagged VHL/Elongin C/Elongin B/GST-tagged KRAS G12D mutant (unknown origin) incubated for 1 hr by HTRF assay
[11] = system: von Hippel-Lindau disease tumor suppressor/GTPase KRas (Homo sapiens), P01116+P40337 [G12D]; assay: PROTAC activity at VHL/KRAS G12D mutant in human ASPC1 cells assessed as induction of protein degradation at 1 uM pretreated with (2S,4R)-1-((S)-2-acetamido-3,3-dimethylbutanoyl)-4-hydroxy-N-((S)-1-(4-(4-methylthiazol-5-yl)phenyl)ethyl)pyrrolidine-2-carboxamide followed by compound treatment for 6 hrs by Western blot analysis; type: cell-based
[12] = system: von Hippel-Lindau disease tumor suppressor/GTPase KRas (Homo sapiens), P01116+P40337 [G12D]; assay: PROTAC activity at VHL/KRAS G12D mutant in human ASPC1 cells assessed as induction of protein degradation at 1 uM pretreated with 4-(4-((1R,5S)-3,8-diazabicyclo[3.2.1]octan-3-yl)-8-fluoro-2-(((S)-1-methylpyrrolidin-2-yl)methoxy)pyrido[4,3-d]pyrimidin-7-yl)-5-ethyl-6-fluoronaphthalen-2-ol followed by compound treatment for 6 hrs by Western blot analysis; type: cell-based
[13] = system: von Hippel-Lindau disease tumor suppressor/GTPase KRas (Homo sapiens), P01116+P40337 [G12D]; assay: PROTAC activity at VHL/KRAS G12D mutant in human ASPC1 cells assessed as induction of protein degradation at 1 uM pretreated with MG-132 followed by compound treatment for 6 hrs by Western blot analysis; type: cell-based
[14] = system: von Hippel-Lindau disease tumor suppressor/GTPase KRas (Homo sapiens), P01116+P40337 [G12D]; assay: PROTAC activity at VHL/KRAS G12D mutant in human ASPC1 cells assessed as induction of protein degradation at 1 uM incubated for 24 hrs by Western blot analysis relative to control; type: cell-based
[15] = system: von Hippel-Lindau disease tumor suppressor/GTPase KRas (Homo sapiens), P01116+P40337 [G12R]; assay: PROTAC activity at VHL/KRAS G12R mutant in human CAL-62 cells assessed as induction of protein degradation at 0.1 uM incubated for 24 hrs by Western blot analysis; type: cell-based
ASPC1 [16] = assay: Downregulation of DUSP4 level in human ASPC1 cells at 0.1 uM incubated for 6 hrs by DIA-based proteomic analysis; type: functional, cell-based
ASPC1 [17] = assay: Downregulation of KRT5 level in human ASPC1 cells at 0.1 uM incubated for 6 hrs by DIA-based proteomic analysis; type: functional, cell-based
ASPC1 [18] = assay: Downregulation of KRT14 level in human ASPC1 cells at 0.1 uM incubated for 6 hrs by DIA-based proteomic analysis; type: functional, cell-based
ASPC1 [19] = assay: Downregulation of DUSP4 mRNA level in human ASPC1 cells at 0.1 to 1 uM incubated for 6 hrs by RT-qPCR analysis; type: functional, cell-based; conditions: dose 0.1-1 µM
ASPC1 [20] = assay: Antiproliferative activity against human ASPC1 cells harboring KRAS G12D mutant assessed as inhibition of cell viability incubated for 5 days by Cell Titer Glo assay; type: functional, cell-based; conditions: ASPC1, 120 h
HPAF-II = assay: Antiproliferative activity against human HPAF-II cells harboring KRAS G12D mutant assessed as inhibition of cell viability incubated for 5 days by Cell Titer Glo assay; type: functional, cell-based; conditions: 120 h
AGS = assay: Antiproliferative activity against human AGS cells harboring KRAS G12D mutant assessed as inhibition of cell viability incubated for 5 days by Cell Titer Glo assay; type: functional, cell-based; conditions: 120 h
Panc 04.03 = assay: Antiproliferative activity against human Panc 04.03 cells harboring KRAS G12D mutant assessed as inhibition of cell viability incubated for 5 days by Cell Titer Glo assay; type: functional, cell-based; conditions: Panc 04.03, 120 h
NCI-H358 = assay: Antiproliferative activity against human NCI-H358 cells harboring KRAS G12C mutant assessed as inhibition of cell viability incubated for 5 days by Cell Titer Glo assay; type: functional, cell-based; conditions: NCI-H358, 120 h
NCI-H1975 = assay: Antiproliferative activity against human NCI-H1975 cells harboring wild-type KRAS assessed as inhibition of cell viability incubated for 5 days by Cell Titer Glo assay; type: functional, cell-based; conditions: NCI-H1975, 120 h
[21] = system: von Hippel-Lindau disease tumor suppressor/GTPase KRas (Homo sapiens), P01116+P40337 [G12D]; assay: PROTAC activity at VHL/KRAS G12D mutant in human ASPC1 cells assessed as decrease in pERK level at 1 uM incubated upto 24 hrs by Western blot analysis; type: cell-based
[22] = biological target: T1, von Hippel-Lindau disease tumor suppressor/GTPase KRas; assay: PROTAC activity at VHL/KRAS G12D mutant in human SNU1 cells assessed as inhibition of pERK level incubated for 24 hrs by Western blot analysis; type: cell-based
[23] = system: von Hippel-Lindau disease tumor suppressor/GTPase KRas (Homo sapiens), P01116+P40337 [G12D]; assay: PROTAC activity at VHL/KRAS G12D mutant in human ASPC1 cells assessed as induction of protein degradation at 1 uM incubated for 6 hrs followed by compound washout measured after 72 hrs by Western blot analysis; type: cell-based
[24] = AUClast in BALB/c mouse at 10 mg/kg, sc by LC-MS/MS analysis; type: ADME, organism-based; conditions: in vivo
[25] = AUC (infinity) in BALB/c mouse at 10 mg/kg, sc by LC-MS/MS analysis; type: ADME, organism-based; conditions: in vivo
[26] = system: von Hippel-Lindau disease tumor suppressor/GTPase KRas (Homo sapiens), P01116+P40337 [G12D]; assay: In vivo PROTAC activity at VHL/KRAS G12D mutant in human ASPC1 cells xenografted in BALB/c nude mouse assessed as induction of protein degradation at 50 mg/kg, sc measured for >24 hrs; type: functional, organism-based
[27] = Toxicity in BALB/c nude mouse xenografted with human ASPC1 cells assessed as notable toxic symptoms at 50 mg/kg, sc for 22 days; type: organism-based; conditions: in vivo, 528 h, time 22 day
ASPC1 [28] = assay: Antitumor activity in human ASPC1 cells xenografted in BALB/c nude mouse assessed as tumor growth inhibition at 30 mg/kg, ip bid for 22 days relative to control; type: functional; conditions: ASPC1, 528 h, time 22 day, read-out: TGI

## CCc1c(F)ccc2cc(O)cc(-c3ncc4c(N5C[C@H]6CC[C@@H](C5)N6)nc(OC[C@@H]5CCCN5CCCCOCC(=O)N[C@H](C(=O)N5C[C@H](O)C[C@H]5C(=O)N[C@@H](C)c5ccc(-c6scnc6C)cc5)C(C)(C)C)nc4c3F)c12
[1]
  Cmax: 2080 ng/mL
[2]
  Tmax: 0.25 h
[3]
  half-life: 8.7 h
[4]
  Ratio IC50: 3.78
ASPC1 [5]
  IC50: 0.0611 µM
[6]
  DC50: 0.0381 µM
[7]
  IC50: 0.0188 µM
[8]
  Drug uptake: Active
[9]
  Activity: Active
[10]
  Activity: 95%
Homo sapiens
  Activity: Active
[11]
  Activity: inactive
[12]
  Activity: inactive
[13]
  Activity: inactive
[14]
  Activity: 95.1%
[15]
  Activity: inactive
ASPC1 [16]
  Activity: Active
ASPC1 [17]
  Activity: Active
ASPC1 [18]
  Activity: Active
ASPC1 [19]
  Activity: Active
ASPC1 [20]
  IC50: 0.06 µM
HPAF-II
  IC50: 0.0452 µM
AGS
  IC50: 0.0314 µM
Panc 04.03
  IC50: 0.0515 µM
NCI-H358
  IC50: > 9 µM
NCI-H1975
  IC50: > 10 µM
[21]
  Activity: Active
[22]
  IC50: 0.0177 µM
[23]
  Activity: Active
[24]
  AUC(0-t): 4470 ng·h/mL
[25]
  AUC(0-inf): 5060 ng·h/mL
[26]
  Activity: Active
[27]
  Activity: Non-Toxic
ASPC1 [28]
  inhibition in vivo at 30 mg/kg: 89.1%
